Measurements reported in patent US9732088B2, “C2-carbocyclic iminothiazine dioxides as BACE inhibitors, compositions, and their use” (Merck Sharp & Dohme Corp., priority 2014, dated 2017).

Assays:
[1] = molecular target: rat Mdr1a (P-gp) (Rattus norvegicus, UniProt Q6PSM0); test: P-Glycoprotein (P-gp) Efflux Susceptibility Assay; type: in vitro ADME; settings: LLC-PK1, pH 7.4; rat LLC-Mdr1a cells, B-A/A-B Papp ratio at 3 h; method 0.1 μM; read-out: P-gp efflux assay (rMDR1a BAAB)
Protocol: Assay 6: P-Glycoprotein (P-Gp) Efflux Susceptibility Assay
As P-gp is expressed at the blood-brain-barrier, among other tissues, lower P-gp efflux ratio values are associated with a better ability to cross the blood-brain-barrier to reach the site of BACE-1 expression in the central nervous system. P-gp efflux ratios are measured in cellular assays using cell lines that express P-gp from a number of species including rat, monkey, and human. The following assay was used to measure the rat P-gp efflux ratios, which are believed to be the most sensitive measure of P-gp susceptibility, for the compounds of the invention (test compounds) reported in the tables below.
The bidirectional transport of test compounds was conducted across pig kidney epithelial (LLC-PK1) cell monolayers. Native LLC-PK1 cells were obtained from The Netherlands Cancer Institute (Amsterdam, The Netherlands), and used under a license agreement. LLC-PK1 cells expressing a cDNA encoding rat Mdr1a (rat LLC-Mdr1a) were made in-house by stable transfection of LLC-PK1 cells with a rat MDR1 cDNA. LLC-PK1 and rat LLC-Mdr1a cell lines were cultured in 96-well transwell culture plates. […] Substrate solution (150 μL) was added to either the apical (A) or the basolateral (B) compartment of the culture plate, and buffer (150 μL; HBSS, 10 mM HEPES, pH 7.4) was added to the compartment opposite to that containing the compound. At t=3 h, 50 μL samples were removed from both sides of monolayers dosed with test compound and placed in 96 well plates, internal standard (50 μL 1 μM labetolol) was added to the samples. Samples were analyzed by LC/MS/MS using an Applied Biosystems SCIEX API 5000 triple quadruple mass spectrometry (Concord, ON, Canada) with a TurbolonSpray ion source in the positive ion mode. A Thermo Scientific Transcend LX-2 system (Franklin, Mass.) was coupled to the API 5000 with a flow rate of 800 μL/min to direct sample into the mass spectrometer. A Waters ACQUITY UPLC T3 (2×30 mm, 1.7 μm; Milford, Mass.) column was used for sample analysis. Mobile phase A consisted of 0.1% formic acid in water. Mobile phase B was acetonitrile with 0.1% formic acid. A gradient elution program was utilized where the solvent composition was held at 5% B for 0.25 min, changed from 5% B to 95% B at 0.25 min, and followed by holding at 95% B for 0.5 min, then, went back to 5% B at 0.75 min. The column was then re-equilibrated at the original solvent composition for 0.5 min. Mass spectrometric detection was accomplished by multiple reaction monitoring (MRM) of transitions unique to each compound. Sample concentration was obtained by extrapolation from the standard curve. Verapamil (1 μM) was used as the positive control to assess the functional activity of Pgp. The experiment was performed in triplicate.
The Papp was calculated by the following formula for samples taken at t=3 h:
[formula] where “Volume of Receptor Chamber” is 0.15 mL, “Area of membrane” is 0.11 cm^2, the “Initial Concentration” is the sum of the concentration measured in the donor compartment plus the concentration measured in the receiver compartment at t=3 h, “Δ in Concentration” is the concentration in the receiver compartment at 3 h, and “Δ in Time” is the incubation time (3×60×60=10800 s). Papp was expressed as 10^−6 cm/s.
The Papp reported in the table below is the average of the Papp for transport from A to B and Papp for transport from B to A at t=3 hr.
The B-A/A-B ratio (BAAB) was calculated by dividing the Papp from B to A by the Papp from A to B at t=3 h: […]

[2] = molecular target: purified human Cathepsin-D (Homo sapiens (Human), UniProt P07339); test: Cathepsin-D Assay (time-resolved FRET); type: biochemical; settings: Assay 4; Ki calculated from IC50 by Cheng-Prusoff;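 further: Europium-labelled peptide substrate with QSY7 quencher, cleavage read as 620 nm fluorescence after 30 min preincubation then 30 min reaction at 30 °C, pH 5.0, inhibition lowers signal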
Chain of purified human Cathepsin-D (P07339 65-412): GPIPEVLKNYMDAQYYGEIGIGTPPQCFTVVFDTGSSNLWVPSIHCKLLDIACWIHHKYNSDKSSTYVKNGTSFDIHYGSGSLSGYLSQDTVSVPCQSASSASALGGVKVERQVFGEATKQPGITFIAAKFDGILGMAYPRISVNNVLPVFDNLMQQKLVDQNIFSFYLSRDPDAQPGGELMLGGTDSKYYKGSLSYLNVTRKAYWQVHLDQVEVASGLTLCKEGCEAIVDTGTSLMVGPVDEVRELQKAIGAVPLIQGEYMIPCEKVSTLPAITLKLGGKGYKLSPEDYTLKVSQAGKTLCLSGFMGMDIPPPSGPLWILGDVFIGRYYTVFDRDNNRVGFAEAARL
Protocol: Assay 4: Cathepsin-D Assay
This substrate contains an C-terminal QSY7 moiety that serves as a quencher of the N-terminal Europium fluorophore (620 nm Em). In the absence of enzyme activity, 620 nm fluorescence is low in the assay and increased linearly over 1 hour in the presence of uninhibited Cathepsin-D enzyme. Inhibition of Cathespin D cleavage of the Eu-Aspartyl Protease-QSY7 substrate by inhibitors is manifested as a suppression of 620 nm fluorescence.
Varying concentrations of inhibitors in a volume of 100 nl are preincubated with purified human Cathepsin-D (0.1 nM in 10 μl) for 30 minutes at 30° C. in reaction buffer containing 100 mM Na-Acetate pH 5.0, and 0.02% Brij-35. Reactions are initiated by addition of 10 μl of 100 nM Eu-Aspartyl Protease-QSY7 substrate (50 nM final) to give a final reaction volume of 20 μl in a 384 well Nunc HTRF plate. The reactions are incubated at 30° C. for 30 minutes. The 620 nm fluorescence is then read on a Envision Multilabel plate reader (Perkin-Elmer) using a 200 microsecond delay followed by a 400 microsecond acquisition time window. Inhibitor IC50 values are derived from non-linear regression analysis of concentration response curves.

[3] = molecular target: purified human autoBACE-2 (Homo sapiens (Human), UniProt Q9Y5Z0); test: BACE-2 Assay (BACE-HTRF assay); type: biochemical; settings: Assay 2; Ki calculated from IC50 by Cheng-Prusoff; read-out: BACE2 Ki
Chain of purified human autoBACE-2 (Q9Y5Z0 63-466): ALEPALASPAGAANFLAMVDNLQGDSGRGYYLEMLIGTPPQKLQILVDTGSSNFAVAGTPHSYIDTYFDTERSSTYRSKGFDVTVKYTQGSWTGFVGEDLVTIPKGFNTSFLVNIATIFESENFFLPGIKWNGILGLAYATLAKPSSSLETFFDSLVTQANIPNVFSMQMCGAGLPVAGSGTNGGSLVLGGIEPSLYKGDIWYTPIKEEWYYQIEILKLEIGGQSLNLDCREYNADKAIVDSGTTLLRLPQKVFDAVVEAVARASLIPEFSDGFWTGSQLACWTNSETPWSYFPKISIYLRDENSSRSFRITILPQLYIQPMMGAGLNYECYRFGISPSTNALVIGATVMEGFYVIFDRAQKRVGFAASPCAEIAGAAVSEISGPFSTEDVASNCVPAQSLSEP
Method in brief: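 Purified human autoBACE-2 (1 nM final) pre-incubated 30 min at 30° C with compounds in 20 mM sodium acetate pH 5.0, 10% glycerol, 0.1% Brij-35, 5% DMSO final; endpoint HTRF cleavage of QSY7/Eu FRET peptide, read at 620 nm (320 nm excitation). IC50 by sigmoidal regression of normalized data; Ki by Cheng-Prusoff.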

Chain of rat Mdr1a (P-gp) (Q6PSM0 1-1272): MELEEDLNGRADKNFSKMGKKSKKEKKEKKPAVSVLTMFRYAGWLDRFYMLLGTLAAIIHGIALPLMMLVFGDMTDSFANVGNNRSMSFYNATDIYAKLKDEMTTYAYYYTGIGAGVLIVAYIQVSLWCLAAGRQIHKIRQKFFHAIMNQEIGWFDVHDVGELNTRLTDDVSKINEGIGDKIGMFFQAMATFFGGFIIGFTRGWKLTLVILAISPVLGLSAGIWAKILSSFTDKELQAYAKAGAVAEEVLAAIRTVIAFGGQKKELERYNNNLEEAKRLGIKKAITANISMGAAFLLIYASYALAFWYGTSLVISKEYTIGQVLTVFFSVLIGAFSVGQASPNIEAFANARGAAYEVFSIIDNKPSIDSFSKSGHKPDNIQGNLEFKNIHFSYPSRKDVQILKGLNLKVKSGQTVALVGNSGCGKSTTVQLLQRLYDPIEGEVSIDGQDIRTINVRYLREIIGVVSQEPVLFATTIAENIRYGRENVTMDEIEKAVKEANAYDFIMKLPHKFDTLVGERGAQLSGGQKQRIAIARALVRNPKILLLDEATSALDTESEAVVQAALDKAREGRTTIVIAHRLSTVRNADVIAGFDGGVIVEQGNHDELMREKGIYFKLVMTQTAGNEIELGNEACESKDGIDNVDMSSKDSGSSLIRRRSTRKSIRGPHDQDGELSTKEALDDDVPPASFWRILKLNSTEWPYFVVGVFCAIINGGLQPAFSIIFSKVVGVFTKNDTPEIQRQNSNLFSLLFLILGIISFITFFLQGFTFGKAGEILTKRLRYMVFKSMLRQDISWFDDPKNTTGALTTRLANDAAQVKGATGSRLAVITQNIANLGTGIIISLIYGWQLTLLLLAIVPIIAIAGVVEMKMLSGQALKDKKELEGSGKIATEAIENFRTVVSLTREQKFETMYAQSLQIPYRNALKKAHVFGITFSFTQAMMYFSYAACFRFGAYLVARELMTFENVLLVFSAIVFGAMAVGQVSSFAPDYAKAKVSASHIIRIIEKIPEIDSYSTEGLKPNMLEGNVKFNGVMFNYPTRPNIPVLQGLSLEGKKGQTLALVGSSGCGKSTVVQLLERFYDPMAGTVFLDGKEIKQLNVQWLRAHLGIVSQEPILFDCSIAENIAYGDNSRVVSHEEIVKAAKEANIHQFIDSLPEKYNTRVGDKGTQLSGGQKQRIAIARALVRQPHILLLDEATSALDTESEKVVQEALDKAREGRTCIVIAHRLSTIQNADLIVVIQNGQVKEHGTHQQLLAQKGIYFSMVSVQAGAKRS

Structure (SMILES) | efflux ratio at 3 h [1] | Ki [2] [nM] | Ki [3] [nM]
COc1cnc2c(Nc3ccc(F)c([C@]4(C)CS(=O)(=O)C(C)(C)C(N)=N4)c3)nccc2n1 [Ex 47 of WO2014059185, reference compound] | 7.9 |  | 
C[C@@]1(c2nc(Nc3nccc4cc(C#N)cnc34)ncc2F)CS(=O)(=O)[C@@](C)(C2CC2)C(N)=N1 [Example 5, 8-({4-[(3R,6S)-6-cyclopropyl-5-imino-3,6-dimethyl-1,1-dioxidothiomorpholin-3-yl]-5-fluoropyrimidin-2-yl}amino)-1,7-naphthyridine-3-carbonitrile] | 31 | 710 | 7.8
COc1cnc2c(Nc3cc([C@]4(C)CS(=O)(=O)[C@@](C)(C5CC5)C(N)=N4)c(F)cn3)nccc2c1 [Example 6, N-{4-[(3R,6S)-6-cyclopropyl-5-imino-3,6-dimethyl-1,1-dioxidothiomorpholin-3-yl]-5-fluoropyridin-2-yl}-3-methoxy-1,7-naphthyridin-8-amine] | 1.5 | > 9400 | 0.57
COc1cnc2c(Nc3ccc(F)c([C@]4(C)CS(=O)(=O)[C@@](C)(C5CC5)C(N)=N4)c3)nccc2c1 [Example 14, N-{3-[(3R,6S)-6-cyclopropyl-5-imino-3,6-dimethyl-1,1-dioxidothiomorpholin-3-yl]-4-fluorophenyl}-3-methoxy-1,7-naphthyridin-8-amine] | 2.9 | 1650 | 2.8
C[C@@]1(c2cc(Nc3ncnc4cc(C#N)cnc34)ccc2F)CS(=O)(=O)[C@@](C)(C2CC2)C(N)=N1 [Example 16, 4-({3-[(3R,6S)-6-cyclopropyl-5-imino-3,6-dimethyl-1,1-dioxidothiomorpholin-3-yl]-4-fluorophenyl}amino)pyrido[3,2-d]pyrimidine-7-carbonitrile] | 31 | 2450 | 1.4
C[C@@]1(c2cc(Nc3nccc4cc(C#N)cnc34)ccc2F)CS(=O)(=O)[C@@](C)(C2CC2)C(N)=N1 [Example 18, 8-({3-[(3R,6S)-6-cyclopropyl-5-imino-3,6-dimethyl-1,1-dioxidothiomorpholin-3-yl]-4-fluorophenyl}amino)-1,7-naphthyridine-3-carbonitrile] | 11 | 651 | 0.64
COc1cnc2c(Nc3ccc(F)c([C@]4(C)CS(=O)(=O)[C@@](C)(C5CC5)C(N)=N4)c3)ncnc2n1 [Example 22, (2S,5R)-2-cyclopropyl-5-(2-fluoro-5-((7-methoxypteridin-4-yl)amino)phenyl)-3-imino-2,5-dimethylthiomorpholine 1,1-dioxide] | 26 | > 9400 | 11
CC1(C)C(=N)N[C@](C)(c2cc(Nc3noc4cc(F)cnc34)ccc2F)CS1(=O)=O [WO′426 Ex. 30b, reference compound] |  |  | 6.1
